In ChEMBL document CHEMBL1135116, “Heterocyclic nucleoside analogues: design and synthesis of antiviral, modified nucleosides containing isoxazole heterocycles” (Bioorg Med Chem Lett, 2002):
Converted amounts (≈) assume the structure as drawn.

Columns and labels:
[1] = system: Coxsackievirus B3; experiment: Tested for its anti-polio activity against Coxsackie B virus type-3; format: functional, organism-based; details: Enterovirus B
[2] = system: Coxsackievirus B3; experiment: Selectivity index as the ratio of CC50/EC50 against Coxsackie B virus type-3; format: functional
[3] = system: Vesicular stomatitis virus; experiment: Selectivity index as the ratio of CC50/EC50 against Vesicular stomatitis virus; format: functional
[4] = system: Vesicular stomatitis virus; experiment: Tested for its anti-polio activity against Vesicular stomatitis virus; format: functional, organism-based

Cc1cn(Cc2cc([C@H](Cc3ccccc3)NC(=O)OC(C)(C)C)no2)c(=O)n(C(=O)c2ccccc2)c1=O
EC50 [1]: 10.6 µg/mL (≈ 20 µM)
Selectivity index [2]: 2.46
Selectivity index [3]: 3.29
EC50 [4]: 7.94 µg/mL (≈ 15 µM)

NC(=O)c1ncn([C@@H]2O[C@H](CO)[C@@H](O)[C@H]2O)n1 [RIBAVIRIN]
EC50 [1]: 92.5 µg/mL (≈ 379 µM)
Selectivity index [2]: 5.58
Selectivity index [3]: 27.26
EC50 [4]: 15.6 µg/mL (≈ 64 µM)

CC(C)[C@H](NC(=O)OC(C)(C)C)c1cc(Cn2ccc(=O)n(C(=O)c3ccccc3)c2=O)on1
EC50 [1]: 98.1 µg/mL (≈ 209 µM)
Selectivity index [2]: 1.02
Selectivity index [3]: 1.25
EC50 [4]: 80 µg/mL (≈ 171 µM)
